No end group written: not given here.
Key:
[1] = system: human leukocyte (WBC) cells; assay: Stimulation and proliferation of leukocytes, Alamar Blue; format: cell-based; conditions: 48 hours
Procedure: In vitro viability of human leukocyte cells in the presence of different peptides at different concentrations was determined by an Alamar Blue protocol. Alamar Blue (Promega, Madison, Wis.) is an indicator dye, formulated to measure quantitatively the proliferation and cytotoxicity of the cells. The dye consists of an oxidation-reduction (redox) indicator that yields a calorimetric change and a fluorescent signal in response to cellular metabolic activity.
Assay protocol: Blood from a human was drawn and centrifuged at 1500 rpm for 15 minutes at room temperature. The buffy coat cells at the plasma-red blood cell interface were aspirated. Buffy coat cells (mainly lymphocyte cells) were then transferred into 15 ml centrifuge tubes containing 5 ml of RPMI-1640 medium+10% Fetal Bovine Serum (Gibco, Grand Island, N.Y.). Additional medium was added to the tubes to bring the volume up to 10 ml. The buffy coat suspension was then carefully layered on 5 ml of Histopaque (Sigma Chemical Co., St. Louis, Mo.) and centrifuged at 1500 rpm for 30 minutes at room temperature. The interface which is mostly PBMCs (peripheral mononuclear cells) was aspirated and transferred to a 15 ml conical centrifuge tube and, resuspended in 2 ml cold RPMI-1640 and brought up to 15 ml with cold RPMI-1640 medium. Cells were centrifuged at 1500 rpm for 10 minutes. The supernatant was then aspirated and discarded. The cell pellet was re-suspended in 1 ml of cold RPMI 1640 and brought up to 15 ml with RPMI medium. This step was repeated twice, except that in the last step, the cells were resuspended with 1 ml of cold RPMI-1640 medium and cell counts were performed with a hemocytometer according to the Sigma cell culture catalogue.
Pokewood mitogen was used as a control along with positive and negative controls. Negative control cells were killed with 70% methanol. Positive (+) control cells were incubated in RPMI medium (untreated). […] of AlamarBlue was added to the cells, and readings were taken after 24 hours, 48 hours, 72 hours, and 96 hours using a fluorimeter (excitation 544/transmission 590 nm).
Calculations were performed using the following formula. The peptide treated sample and positive control were adjusted for negative control. [formula]
Using the protocol described immediately above, about 100-150 peptides were screened for their stimulatory and/or inhibitory actions upon the growth of human leukocyte (“WBC”) cells as compared to the growth of untreated positive control cells.
The Alamar Blue stain used in the protocol permeates both cell and nuclear membranes, and is metabolized in the mitochondria to cause the change in color. The resulting fluorometric response is therefore a result of total mitochondrial activity caused by cell stimulation and/or mitosis (cell proliferation).

[2] = system: human red blood cells (RBC); assay: in vitro; format: cell-based; conditions: for Peptide toxicity RBC LD/50: human red blood cells; for LD50: hemolytic assay, concentration at 50% hemolysis, 1 hour at 37° C.
in vitro = conditions: human, WI38 normal lung fibroblast cells
[3] = system: Pseudomonas aeruginosa ATCC 9027; assay: Antimicrobial assay I, MIC by OD measurement; format: cell-based; conditions: 37° C. for 24 hours, absorbance 620 nm
[4] = system: Staphylococcus aureus ATCC 6538; assay: Antimicrobial assay I, MIC by OD measurement; format: cell-based; conditions: 37° C. for 24 hours, absorbance 620 nm
[5] = system: yeast (Saccharomyces cerevisiae); assay: Antimicrobial assay I, yeast assay in RPMI 1640; format: cell-based; conditions: RPMI 1640 media
BMKC = assay: Anti-cancer assay, MTT, LD50; format: cell-based; conditions: BMKC cloned melanoma line, 24 hours with peptide
From the text: (§1) Numbers are LD50 values (μg/mL).

H1299 = assay: Anti-cancer assay, MTT, LD50; format: cell-based; conditions: 24 hours with peptide, lung large cell carcinoma
From the text: as §1

HeLaS3 = assay: Anti-cancer assay, MTT, LD50; format: cell-based; conditions: 24 hours with peptide, cervical carcinoma
From the text: as §1

MCF7 = assay: Anti-cancer assay, MTT, LD50; format: cell-based; conditions: MCF7 breast adenocarcinoma line, MTT, 24 hours with peptide
From the text: as §1

PC3 = assay: Anti-cancer assay, MTT, LD50; format: cell-based; conditions: 24 hours with peptide, prostate adenocarcinoma
From the text: as §1

SW480 = assay: Anti-cancer assay, MTT, LD50; format: cell-based; conditions: SW480 colon adenocarcinoma line, 24 hours with peptide
From the text: as §1

WI38 = conditions: MTT, 24 hours with peptide; normal fibroblast line
[6] = Peptide toxicity WI-38 LD/50, human fibroblast cells
[7] = LD50 WI38, WI38 normal lung fibroblast line, MTT, 24 hours with peptide

Substance	Peptide treated cell activity Percent stimulation relative to control ([1]; 0.1 ug/ml)	Peptide treated cell activity Percent stimulation relative to control ([1]; 1 ug/ml)	Peptide treated cell activity Percent stimulation relative to control ([1]; 10 ug/ml)	Peptide treated cell activity Percent stimulation relative to control ([1]; 100 ug/ml)	Peptide treated cell activity Percent stimulation relative to control ([1]; 500 ug/ml)	Peptide toxicity RBC LD/50 [2]	CC50 at 24 h (in vitro; [6])	paerug9027 (MIC) [3]	staph6538 (MIC) [4]	yeast (MIC or MFC) [5]	LD50 BMKC (BMKC)	H1299 LD50 (H1299)	HeLaS3 LD50 (HeLaS3)	LD50 MCF7 (MCF7)	PC3 LD50 (PC3)	LD50 SW480 (SW480)	LD50 [2]	WI38 LD50 (WI38)	CC50 at 24 h (in vitro; [7])
VAKLLAKLAKKLL-NH2 [compound 30]	74%	68%	62%	13%	13%	130	60 µg/mL												
MPKWKVFKKIEKVGRNIRNGIVKAGPAIAVLGEAKALG-NH2 [compound 5]	111%	115%	118%	116%	101%	>1000	950 µg/mL												
FAKALAKLAKKLL-NH2 [compound 58]	112%	112%	98%	35%	26%	300	25 µg/mL												
FAKLLAKLAKKLL-NH2 [compound 25]	78%	82%	71%	14%	12%	20	5 µg/mL												
LPKWKVFKKIEKVGRNIRNGIVKAGPAIAVLGEAKALG-NH2 [compound 150]	97%	101%	94%	109%	112%	>1000	320 µg/mL												
FAVGLRAIKRALKKLRRGVRKVAKDL-NH2 [compound 119]	88%	108%	54%	117%	89%	850	500 µg/mL												
FAKLLALALKKAL-NH2 [compound 165]	107%	109%	106%	27%	22%	350													
FAKLLAKKLL-NH2 [P57]								200 µg/mL	100 µg/mL	200 µg/mL	740 µg/mL	> (> indicates greater than 1000)	830 µg/mL	> (> indicates greater than 1000)	> (> indicates greater than 1000)	740 µg/mL	> (> indicates greater than 1000)	900 µg/mL	900 µg/mL
FAKLFAKLAKKFAL-NH2 [P121, FAKLFAKLAKKFAL-NH2]								> (> indicates greater than 200 μg/mL)	50 µg/mL	100 µg/mL	670 µg/mL	460 µg/mL	830 µg/mL	400 µg/mL	> (> indicates greater than 1000)	800 µg/mL	> (> indicates greater than 1000)	625 µg/mL	625 µg/mL
FALALKLAKKL-NH2 [P178]								100 µg/mL	200 µg/mL	> (> indicates greater than 200 μg/mL)	640 µg/mL	> (> indicates greater than 1000)	> (> indicates greater than 1000)	770 µg/mL	> (> indicates greater than 1000)	> (> indicates greater than 1000)	> (> indicates greater than 1000)	405 µg/mL	405 µg/mL
VALALKALKKL-NH2 [P180]								> (> indicates greater than 200 μg/mL)	200 µg/mL	> (> indicates greater than 200 μg/mL)	770 µg/mL	> (> indicates greater than 1000)	760 µg/mL	950 µg/mL	> (> indicates greater than 1000)	600 µg/mL	> (> indicates greater than 1000)	940 µg/mL	940 µg/mL
FAKIIAKIAKIAKKIL-NH2 [P139]								25 µg/mL	50 µg/mL	200 µg/mL	525 µg/mL	850 µg/mL	> (> indicates greater than 1000)	625 µg/mL	> (> indicates greater than 1000)	> (> indicates greater than 1000)	> (> indicates greater than 1000)	550 µg/mL	550 µg/mL

— US20050209157A1, “Short bioactive peptides and methods for their use” (priority 2001, published 2005)
